{"source": "patent US20160033533A1", "about": "“2-HYDROXYGLUTARATE AS A BIOMARKER FOR CHRONIC HYPOXIA” (MEMORIAL SLOAN KETTERING CANCER CENTER, priority 2011, published 2016)", "tested_on": "SF188 cells", "assay": "Viability of glutamine-starved hypoxic SF188 cells (trypan blue dye exclusion)", "format": "cell-based, human", "conditions": "0.5% O2, 48 h, glutamine-deficient medium supplemented with 7 mM dimethyl α-ketoglutarate", "method": "In FIG. 2(A), SF188 cells were cultured for 24 h in complete medium equilibrated with either 21% O2 (Normoxia) or 0.5% O2 (Hypoxia). Culture medium was then removed from cells and analyzed for glutamine levels which were compared to the glutamine levels in fresh medium. Data are the mean±SEM of 3 independent experiments. […] Cells were cultured in complete medium equilibrated with 0.5% O2 for 24 h, followed by an additional 48 h at 0.5% O2 in either complete medium (+Gln), glutamine-deficient medium (−Gln), or glutamine-deficient medium supplemented with 7 mM dimethyl α-ketoglutarate (−Gln+αKG). All medium was pre-conditioned in 0.5% O2. Cell viability was determined by trypan blue dye exclusion. Data are the mean and range from 2 independent experiments. FIG. 2(C) depicts a model of the pathways for cit+4 and cit+5 production from [U-^13C]glutamine (glutamine+5). […] Cells were cultured for 24 h as in (A), followed by 4 h of culture in glutamine-deficient medium supplemented with 4 mM [U-^13C]glutamine. ^13C enrichment in cellular citrate was quantitated with GC-MS. […]\nSF188 and RCC4 cells were cultured in Dulbecco's Modified Eagle's Medium (DMEM; Invitrogen 11965), 10% fetal bovine serum (FBS; Gemini Biosystems), 100 units/ml Penicillin, 100 ug/ml Streptomycin, 25 mM glucose, and 6 mM L-glutamine. […] Viability was determined by trypan blue exclusion. […]", "data": [{"smiles": "COC(=O)CCC(=O)C(=O)OC", "note": "[dimethyl α-ketoglutarate]", "values": [{"measurement": "cell viability upon glutamine withdrawal", "value": "rescued the defect in cell viability"}]}]}
